Assay results reported in patent US7365080B2, “Pharmaceutical compositions comprising thieno[2,3-c]pyridine derivatives and use thereof” (Rimonyx Pharmaceuticals Ltd., priority 2003, dated 2008).

Key:
[1] = tested on: immobilized heparin / L-selectin/IgG; experiment: Assay 1: direct interaction with heparin, pre-incubation versus co-incubation with L-selectin; format: binding; conditions: compound 0.1-200 μM, 90 min, washed before L-selectin/IgG
Method: Inhibitor Compounds at final concentration 0.1-200 μM were incubated in the ELISA plate for 90 min, and then washed with incubation buffer. After washing, L-selectin/IgG was added to the wells pre-incubated with compounds. At the same time, in separate control wells, L-selectin was co-incubated with inhibitor Compounds for 90 min. Following the incubation, L-selectin bound to the plate was quantified by antibody conjugated to Horse Radish Peroxidase and OD measurement as performed as described in Example 5.

BALB/c mice [2] = experiment: Thioglycollate-induced leukocyte and neutrophil infiltration into mouse peritoneum; format: in vivo
Method: The ability of compounds of the present invention to reduce leukocyte migration to sites of acute inflammation was evaluated in BALB/c mice using a thioglycolate-induced model of peritonitis. In this animal model, interactions of L- and P-selectin with HS-GAGs have been implicated in neutrophil infiltration (Nelson, R. M., 82:3253-3258, 1993; Xie, X. et al., J. Biol. Chem., 275:34818-34825, 2000).
BALB/c mice (6 weeks old, ˜20 g in weight, 15 mice/group) received intraperitoneal injection of an inhibitor compound in 0.2 ml DMSO/Tween/sterile saline 1 hour before administration of thioglycollate (Sigma). Control groups received vehicle and sham controls received no thioglycollate. Mice were injected intraperitoneally with 1 ml of 3% thioglycollate broth (Xie, X. et al., J. Biol. Chem., 275, 34818-34825, 2000). Mice were sacrificed after 3 hours, and the peritoneal cavities were ravaged with […] of ice-cold saline containing 2 mM EDTA to prevent clotting. After red blood cell lysis, leukocytes were counted in a hemocytometer. Neutrophils were counted after staining with Türck. Data was expressed as mean±SEM, and statistical analysis was performed by Student t test. A value of P<0.05 was taken to denote statistical significance.

Mice = experiment: Delayed-type hypersensitivity (oxazolone, ear-swelling test); format: in vivo, mouse; conditions: 3 mg/kg iv, 24 hours after challenge
Method: Mice (15 animals per group) were sensitized by topical application of a 2% oxazolone (4-ethoxymethylene-2-phenyl-2-oxazoline-5-one; Sigma, St Louis, Mo.) solution in acetone/olive oil (4:1 vol/vol) to shaved abdomen (50 μl) and to each paw (5 μl) (Lange-Asschenfeldt B. et al., Blood 99:538-545, 2002). Five days after sensitization, right ears were challenged by topical application of 10 μl of a 1% oxazolone solution, whereas left ears were treated with vehicle alone. Compounds were administered 1 hr prior to challenge. The extent of inflammation was measured 24 hours after challenge, using the mouse ear-swelling test. The unpaired Student t test was used for statistical analyses.

BALB/c mice [3] = experiment: Carrageenan-induced paw edema; format: in vivo, mouse; conditions: i.p. administration 60 min before carrageenan
Method: Acute edema was induced in the left hind paw of Balb/c mice by injecting 0.02 ml of freshly prepared solution of 2% carrageenan after 60 min of test compound administration (Torres, S. R. et al., European Journal of Pharmacology 408: 199-211, 2000). The right paw received 0.02 ml of saline, which served as a control. Carrageenan was injected under the plantar region of right hind paw and the paw thickness was measured at 2, 4 and 24 hours after carrageenan challenge using a Mitutoyo engineer's micrometer expressed as the difference between right and left pad as mean±SEM. […] A dose response curve for Compound no.

L-Selectin = biological target: T1, L-Selectin (Homo sapiens, UniProt P14151); experiment: ELISA: inhibition of L-selectin/IgG binding to immobilized heparin (Heparin-BSA); conditions: L-Selectin binding to heparin; 50 μM
T1 construct: purchased Research and Development Systems 728-LS
T1 sequence (P14151 39-332 limits assumed): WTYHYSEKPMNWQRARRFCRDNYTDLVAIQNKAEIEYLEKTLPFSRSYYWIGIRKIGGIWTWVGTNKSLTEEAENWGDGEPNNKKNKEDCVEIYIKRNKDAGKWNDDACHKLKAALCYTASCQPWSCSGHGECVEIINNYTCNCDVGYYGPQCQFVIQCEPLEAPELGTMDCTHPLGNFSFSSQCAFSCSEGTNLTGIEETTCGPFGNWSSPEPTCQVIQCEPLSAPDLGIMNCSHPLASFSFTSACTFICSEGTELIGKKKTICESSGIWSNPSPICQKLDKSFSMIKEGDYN
Method: The inhibitory effect of the compounds of the present invention can be evaluated by several methods in vitro. One assay for measuring GAG-ECAM binding, exemplified herein below, detects the binding of L selectin/IgG to immobilized heparin. Another assay utilizes immobilized L-selectin, or L-selectin fused to protein domains other than IgG. The amount of bound L-selectin is determined by an ELISA assay using, for example, a monoclonal antibody raised against L-selectin, which is conjugated to horseradish peroxidase. […] The Dregg-55 antibody was also shown to inhibit L-selectin-dependent adhesion in vitro, neutrophil accumulation in vitro and inflammation in vivo (Co M. S. et al, Immunotechnology 493: 253-266, 1999).
An in vitro assay was used to assess the ability of test compounds according to formula I to inhibit the interactions of L-selectin with HS-GAGs. The assay was suitable for determining the concentration required for 50% inhibition (IC-50) for each specific compound. In the assay, the GAG used was heparin. Thus, porcine intestinal mucosa heparin conjugated to Bovine Serum Albumin (Heparin-BSA; Sigma Cat. No. H0403) at […] in Phosphate Buffered Saline (PBS; pH 6.5) was added to a 96 well polystyrene ELISA plate (NUNC Cat. No. 442404; 0.1 ml per well) and incubated Over Night (ON) at 4° C. Following the incubation, the plate was washed thoroughly, by immersion, with de-ionized water and PBS (pH 6.5). The ELISA plate was then blocked with BSA (ICN Cat. No.160069, 3%, 200 μl per well) for 1 hour at Room Temperature (RT). Following blocking, the plate was washed with de-ionized water, and then with PBS (pH 6.5) containing Tween 20 (Sigma Cat. No. P-1379, 0.05%). Compounds were synthesized or purchased from ChemDiv Labs (San Diego, Calif.), dissolved in DMSO, diluted in PBS and added to the wells at various concentrations in the range of 0.01 to 300 μM. Recombinant Human L-Selectin/IgG (Research and Development Systems Cat. No.728-LS) dissolved in PBS supplemented with BSA (0.1%) and calcium chloride (1 mM) was added to the ELISA plate (100 μl per well) and incubated for 60 minutes at RT with shaking. Following incubation, the plate was washed with de-ionized water and three times with PBS (pH 6.5) containing Tween 20. Anti-Human IgG Peroxidase Conjugate (1:5000; Sigma Product No. A8667) diluted in PBS supplemented with BSA (0.1%) and calcium chloride (1 mM) was added to the ELISA plate (100 μl per well) and incubated for 30 minutes at RT with shaking. The plate was then washed with de-ionized water and three times with PBS (pH 6.5) containing Tween 20. The peroxidase substrate cromogen, TMB (Dako Cat. No. S1599) was added (100 μl per well) to the ELISA plate and incubated at room temperature. After 15 minutes ELISA Stop Solution (hydrochloric acid 1N, sulfuric acid 3N) was added (200 μl per well) to stop the peroxidase catalyzed colorimetric reaction. The Optical Density (OD) of the samples was measured at 450 nm using an ELISA plate reader (Dynatech MR5000). Data were analyzed with Graphpad Prism software and IC-50 values were established. The P-selectin assay was carried out in a similar fashion, except that Recombinant Human P-Selectin/IgG (Research and Development Systems Cat.No.137-PS) was used.

- level of inhibition of L-selectin binding to heparin, pre-incubation versus co-incubation [1]: same level of inhibition
- inhibition at 50 µM (L-Selectin): 62%
Compound: CCCCN(CC)S(=O)(=O)c1ccc(C(=O)Nc2sc3c(c2-c2nc4ccccc4s2)CCN(CC)C3)cc1 [Compound 5, 2-[[4-[(ethylbutylamino)sulfonyl]benzoyl]amino]-3-(benzothiazol-2-yl)-6-ethyl-4,5,6,7-tetrahydrothieno[2,3-c]pyridine]
- reduction of leukocyte infiltration (BALB/c mice [2]; 2 mg/kg intraperitoneal): 25%
- reduction of leukocyte infiltration (BALB/c mice [2]; 10 mg/kg intraperitoneal): 50%
- reduction of leukocyte infiltration (BALB/c mice [2]; 50 mg/kg intraperitoneal): 75%
- neutrophil infiltration in mouse peritonitis (in words) (BALB/c mice [2]; FIG. 4, 2, 10, 50 mg/kg): dose-dependent inhibition
- leukocyte migration into the peritoneal cavity (in words) (BALB/c mice [2]; intraperitoneal, 1 hour before thioglycollate, 3 hours): inhibited efficiently
- DTH, % of control value (Mice): 56 % of control value
- carrageenan induced paw edema (in words) (BALB/c mice [3]): anti-inflammatory properties
